The text below walks through data of patent publication US20190350955A1, “METHODS AND PHARMACEUTICAL COMPOSITIONS FOR THE TREATMENT OF CARDIOMYOPATHIES” (INSERM (Institut National de la Sante et de la Recherche …, priority 2016, published 2019).

In one assay the test system is citrate synthase. Kind of assay: Citrate synthase activity in left ventricular myocardium. The assay is classed as in vivo, mouse. Conditions: SRF HKO left ventricular myocardium at D50, NR diet. Here is the method: SRF^HKO and control (Sf/Sf) mice were administered either rodent maintenance SAFE A04 diet containing 3.10% crude fat. 16.10% crude proteins. 26% starch and 1.9% sugar (Scientific Animal Food Engineering, Paris, France) or SAFE # A04 diet supplemented with NR. NR was provided by Chromadex under brand name NIAGEN (Irvine Calif. USA). The soft pellets were manually prepared every 5 days by mixing 1.65 g of NR into 500 g of powdered SAFE A04 diet and 235 ml of water to reach 2.24 mg of NR/g (wet weight). Control diet was prepared in the same way omitting NR. Mice had ad libitum access to food and water. […]
Frozen tissue samples were weighed, homogenized (Bertin Precellys 24) in ice-cold buffer (50 mg/ml) containing HEPES 5 mM (pH 8.7), EGTA 1 mM, DTT 1 mM and 0.1% Triton X-100. Citrate synthase (CS), activity was determined in homogenized ventricles as previously described (Kuznetsov et al. (2008). Analysis of mitochondrial function in situ in permeabilized muscle fibers, tissues and cells. Journal 3, 965-976). Activities of enzymes were determined by standard spectrophotometric assays. Briefly, for citrate synthase (CS), approximately 0.5 μg of protein were added in 1 ml of Buffer M (Trizma 100 mM (pH 8), 5,5′-dittiobis-(2-Nitrobenzenoic acid) 0.1 mM, Acetyl-CoA 0.3 mM, oxaloacetatic acid 0.5 mM) and the absorbance at 412 nm was measured during 3 min. […]

The next assay deals with Lmna^H222P/H222P mice. Nature of the assay: Immunoblotting of PARylation, PARP-1, AIF, cleaved-caspase 3 in heart. The assay is classed as in vivo, mouse. The conditions noted are these: NR treated Lmna H222P/H222P mice. Here is the method: Mice were bred in an accredited animal facility (accreditation number: C-75-13-08). All experiments on mice were approved by the Comité d'éthique en expérimentation animate Charles Darwin No 5. Mice Lmna^H222P/H222P were backcrossed 8 times to 129S2/SvPasOrlRj strain mice to obtain pure genetic background. Male mice used for the studies were maintained under a 12 h light/12 h dark cycle at constant temperature (23° C.) with free access to food and water. Nicotinamide riboside (NR) complementation: Animals at 17 weeks of age were fed for 9 weeks with either a chow diet (A04: Scientific Animal Food & Engineering) or a chow diet complemented with 0.25% of NR (kindly provided by ChromaDex, Inc. California) corresponding to a dose of 400 mg/kg/day for a mouse weighing 25 g eating 4 g of food per day. […]
Total proteins were extracted in a glass teflon potter from around 5 mg of mouse heart in […] of Cell Lysis Buffer (Cell Signaling) completed with Deacetylation Inhibitors Cocktail (Santa Cruz). Total protein concentration was assessed with BCA™ Protein Assay (Pierce). […] The signal was captured with a CCD camera (G:Box Syngene) and quantified with ImageJ imaging Software (imagej.net).
On the technique in general: A western blot detects proteins with antibodies after separation by electrophoresis.

Turning to `NC(=O)c1ccc[n+]([C@@H]2O[C@H](CO)[C@@H](O)[C@H]2O)c1` [NR, nicotinamide riboside], in the assay with citrate synthase, the citrate synthase activity result is “protected against the decline”. Further, in the assay with Lmna^H222P/H222P mice, the “PARP-1, AIF and cleaved-caspase 3 in heart” value is given as “activation”; the PARylation in heart entry is given as “increase”.
